Read-outs that look alike come from different tables or passages of the source.
Columns and labels:
[1] = system: BDNF protein; details: mouse, in vivo
[2] = system: OPCs in the corpus callosum; details: MTX at P21, 28, 35; one month (P63) and 6 months (P203) after cessation; cited from earlier work
[3] = system: P6-8 mouse OPCs; assay: OPC proliferation index (EdU+/PDGFRa+) in cultures of murine OPCs; type: cell-based; details: 24-hour exposure; 0-1000 nM concentration range
Source text: (§1) Cells were fixed at day 100 following induction and the percent of DAPI+ cells expressing the OPC marker PDGFRa was quantified. […] Green=PDGFRa, white=DAPI. Scale bar=10 μm. […] Cells were fixed at day 100 following induction and the percent of DAPI+ cells expressing the mature oligodendrocyte marker MBP was quantified. […] Red=MBP, white=DAPI. Scale bar=10 μm. […] White-dashed circle=lesioned area in the corpus callosum. Scale bar=20 μm. […] FIG. 5K-FIG. 5M show representative confocal images of proliferating OPCs as shown by EdU incorporation into PDGFRa+ cells in mouse OPC cultures treated with vehicle control (FIG. 5K), 50 nM BDNF (FIG. 5L) and 100 nM LM22A-4 (FIG. 5M).
(§2) Thus, to therapeutically manipulate BDNF-TrkB signaling to promote oligodendrogenesis, we tested a small molecule TrkB partial agonist, LM22A-4. […] To determine if LM22A-4 could promote OPC proliferation and differentiation in a manner similar to BDNF, we compared the effects of recombinant BDNF, LM22A-4 or vehicle control in cultures of murine OPCs.

[4] = system: P6-8 mouse OPCs; assay: Oligodendroglial differentiation (CC1+ cells) in murine OPC cultures; type: cell-based; details: seven-day exposure; BDNF 50 nM, LM22A-4 100 nM daily
Source text: as §1, §2

[5] = system: human iPSC-derived OPCs; assay: In vitro oligodendrogenesis in human iPSC-derived OPCs (PDGFRa+, MBP+ cells); type: cell-based; details: day 25-35 of OPC induction; 20 ng/ml BDNF or 1000 nM LM22A-4; fixed at day 100
Source text: as §1, §2

[6] = system: lysolecithin-induced demyelination in the corpus callosum; assay: Lysolecithin demyelination model, OPC proliferation and oligodendrogenesis in corpus callosum lesion; type: in vivo, mouse
Source text: as §1
To investigate the effects of LM22A-4 treatment on OPC proliferation and oligodendrogenesis in vivo, we next examined mice treated with either LM22A-4 or vehicle control in a well-established demyelination model. Stereotaxic injection of lysolecithin into white matter regions causes a focal, toxic, demyelinating injury; this leads to microglial activation and demyelination, followed by OPC proliferation, recruitment and migration into the lesion area. […]

[7] = type: in vivo, mouse; details: LM22A-4 50 mg/kg i.p. daily P38-P62, tested P63
Procedure: (§3) A single point indicates the g-ratio for a single axon. Approximately 100 axons were quantified and the mean g-ratio determined for each mouse. P-values (indicated on plots) were determined by a Student's t-test, comparing the mean g-ratio on a per mouse basis between groups. […] At P63, the Novel Object Recognition Test was performed in mice previously exposed to MTX chemotherapy or PBS vehicle control and later treated with LM22A-4 or vehicle control. Percent preference for novel object was measured as the percent time spent with novel object over the total time spent with either object (n=4 mice in each group). Statistical significance was determined by a one-sample t-test, where the average percent preference for the novel object for each group was measured against a hypothetical value of 50% chance an animal would interact with either object. […] Scale bars=2 μm. FIG. 6F-FIG. 6G show myelin microstructure data shown in FIG. 6C are shown as scatterplots of g-ratio as a function of axon caliber. […] LM22A-4 increases myelin sheath thickness in control mice. […] LM22A-4 rescues myelin deficits in mice exposed to juvenile MTX in small caliber axons (<0.5 μm; n=7 mice, p=0.005), medium caliber axons (0.5 μm-1.0 μm; n=7, p=0.006) and large caliber axons (>1.0 μm; n=7 mice; p=0.033) compared to mice exposed to MTX but treated with vehicle control. Data in FIG. 6A-FIG. 6E shown as mean±SEM, ns=p>0.05, * p<0.05, ** p<0.01 *** p<0.001 as determined by Student's t-test.
(§4) The chemotherapy-induced neurological syndrome is characterized by decreased attention and memory function and this is recapitulated in the MTX mouse model used here. To test the hypothesis that BDNF to TrkB signaling could promote myelination and improve cognitive dysfunction after chemotherapy exposure, mice were subjected to the above MTX chemotherapy protocol, then treated systemically with the TrkB partial agonist LM22A-4 (50 mg/kg i.p. daily, P38-P62, FIG. 6A) or vehicle control, and analyzed at 24 hours after the final injection (P63) for changes in myelin microstructure and behavioral performance in the novel object recognition test.
(§5) Myelin microstructure in the cingulum of the corpus callosum was examined by transmission electron microscopy. […] The myelin microstructural effects of LM22A-4 thus mimic activity-regulated changes in myelin microstructure, but would lack the circuit-specificity of the activity-regulated response. To test the influence of LM22A-4 on a behavioral measure of attention and memory function, the novel object recognition test was used. After brief introduction to two identical objects, mice are then exposed to one familiar object as well as a completely novel object after a time delay of 5-minutes. […] Treatment with LM22A-4 from P38-P62 rescues performance in the novel object recognition test in MTX treated mice as these mice spend a significant percentage of their time interacting with the novel object over the familiar object (MTX+vehicle: 47.94%±3.50%, p=0.5968 over 50%; PBS+vehicle: 63.37%±4.72%, p=0.0219 over 50%; MTX+LM22A-4: 62.81%±3.31%, p=0.0305 over 50%; PBS+LM22A-4: 68.93%±6.34%, p=0.0317 over 50%; FIG. 6E).

[8] = system: myelinated axons in the cingulum of the corpus callosum; type: in vivo, mouse; details: for g-ratio: LM22A-4 50 mg/kg i.p. daily P38-P62, analysed P63
Procedure: as §3, §4, §5

[9] = biological target: TrkB receptor (Homo sapiens, UniProt Q16620); details: previously shown; cited from earlier work
Chain of TrkB receptor (Q16620 32-822): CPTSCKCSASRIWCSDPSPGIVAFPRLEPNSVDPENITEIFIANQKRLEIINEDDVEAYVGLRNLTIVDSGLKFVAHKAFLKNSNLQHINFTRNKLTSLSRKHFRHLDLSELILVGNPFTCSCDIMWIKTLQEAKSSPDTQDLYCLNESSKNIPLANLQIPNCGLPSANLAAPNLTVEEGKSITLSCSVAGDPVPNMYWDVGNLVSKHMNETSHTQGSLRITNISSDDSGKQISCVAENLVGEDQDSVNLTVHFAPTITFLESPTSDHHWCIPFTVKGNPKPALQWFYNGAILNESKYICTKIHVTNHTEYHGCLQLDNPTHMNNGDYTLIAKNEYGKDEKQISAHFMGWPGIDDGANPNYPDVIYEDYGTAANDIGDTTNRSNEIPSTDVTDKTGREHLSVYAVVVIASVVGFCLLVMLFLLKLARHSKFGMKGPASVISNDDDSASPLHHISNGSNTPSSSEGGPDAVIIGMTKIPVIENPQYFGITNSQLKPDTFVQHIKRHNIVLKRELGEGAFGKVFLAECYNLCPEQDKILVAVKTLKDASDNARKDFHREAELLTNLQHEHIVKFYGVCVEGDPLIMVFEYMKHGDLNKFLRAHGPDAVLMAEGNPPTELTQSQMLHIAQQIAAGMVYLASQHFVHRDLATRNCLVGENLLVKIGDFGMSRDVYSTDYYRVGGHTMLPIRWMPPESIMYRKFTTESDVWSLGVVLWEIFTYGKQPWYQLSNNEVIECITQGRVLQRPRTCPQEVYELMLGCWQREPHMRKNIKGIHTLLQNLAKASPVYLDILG

[10] = BDNF protein; cited from earlier work

## CN(Cc1cnc2nc(N)nc(N)c2n1)c1ccc(C(=O)N[C@@H](CCC(=O)O)C(=O)O)cc1 [MTX, methotrexate]
[1]
  corpus callosum BDNF protein levels: 5350 ± 1740 pg/mL
  decrease in corpus callosum BDNF protein levels compared to PBS vehicle controls: more than three-fold decrease
[2]
  OPCs in the corpus callosum after MTX exposure: lasting reduction of OPCs in the corpus callosum

## O=C(NCCO)c1cc(C(=O)NCCO)cc(C(=O)NCCO)c1 [LM22A-4, N,N′,N″-tris(2-hydroxyethyl)-1,3,5-benzenetricarboxamide]
[3]
  proliferative index of OPCs (fraction of total cells in S phase, co-localization of PDGFRa with EdU): similarly increased the proliferative index of OPCs in the low nanomolar range and in a dose-dependent manner
[4]
  oligodendroglial differentiation, cells expressing CC1 relative to vehicle control: similarly promoted oligodendroglial differentiation
[5]
  in vitro oligodendrogenesis in human oligodendroglial lineage cells: similarly promote in vitro oligodendrogenesis
[6]; 50 mg/kg i.p. for one week from day 7 after lysolecithin injection
  density of EdU+/PDGFRa+ proliferating OPCs in lesioned area: 1132±67.1 cells/mm3
[6]; 50 mg/kg, day 7 to 21 following lysolecithin injury
  density of EdU+/CC1+ newly generated mature oligodendrocytes in lesioned area: 764.8±141.6 cells/mm3
[7]; MTX-exposed mice
  percent preference for novel object: 62.81%±3.31%
[7]; PBS-exposed mice
  percent preference for novel object: 68.93%±6.34%
[8]; MTX-exposed mice (100 mg/kg i.p. P21, 28, 35)
  g-ratio: 0.733±0.017
[8]; MTX-treated mice, small (<0.5 μm), medium (0.5-1.0 μm), large (>1.0 μm) caliber axons
  myelin thickness by axon caliber: increased myelin thickness in small, medium and large caliber axons
[8]; PBS-exposed mice
  g-ratio: 0.713±0.010
[9]
  TrkB receptor activation: activate the TrkB receptor specifically

## BDNF: brain-derived neurotrophic factor, recombinant protein, ligand of TrkB
[3]
  proliferative index of OPCs (fraction of total cells in S phase, co-localization of PDGFRa with EdU): increased the proliferative index
[4]
  oligodendroglial differentiation, cells expressing CC1 relative to vehicle control: similarly promoted oligodendroglial differentiation
[5]
  in vitro oligodendrogenesis in human oligodendroglial lineage cells: similarly promote in vitro oligodendrogenesis

B1: BDNF: brain-derived neurotrophic factor, recombinant protein, ligand of TrkB (protein, UniProt P23560 19-247, looked up)
Neurotrophic factor BDNF …: APMKEANIRGQGGLAYPGVRTHGTLESVNGPKAGSRGLTSLADTFEHVIEELLDEDQKVRPNEENNKDADLYTSRVMLSSQVPLEPPLLFLLEEYKNYLDAANMSMRVRRHSDPARRGELSVCDSISEWVTAADKKTAVDMSGGTVTVLEKVPVSKGQLKQYFYETKCNPMGYTKEGCRGIDKRHWNSQCRTTQSYVRALTMDSKKRIGWRFIRIDTSCVCTLTIKRGR
[10]
  blood-brain-barrier penetration: poor blood-brain-barrier penetration
  plasma half-life: short plasma half-life
